Measurements: patent US8809331B2 (Genentech, Inc., priority 2011, dated 2014)

Each compound was assayed against T1, LRRK2 (Homo sapiens, UniProt Q5S007, G2019S) (assay: In Vitro LRRK2 LabChip Assay (LRRK2 Ki)). Conditions: Table 5 compounds (formula I).
T1 construct: purchased Invitrogen PV4882
T1 sequence (Q5S007 whole entry G2019S): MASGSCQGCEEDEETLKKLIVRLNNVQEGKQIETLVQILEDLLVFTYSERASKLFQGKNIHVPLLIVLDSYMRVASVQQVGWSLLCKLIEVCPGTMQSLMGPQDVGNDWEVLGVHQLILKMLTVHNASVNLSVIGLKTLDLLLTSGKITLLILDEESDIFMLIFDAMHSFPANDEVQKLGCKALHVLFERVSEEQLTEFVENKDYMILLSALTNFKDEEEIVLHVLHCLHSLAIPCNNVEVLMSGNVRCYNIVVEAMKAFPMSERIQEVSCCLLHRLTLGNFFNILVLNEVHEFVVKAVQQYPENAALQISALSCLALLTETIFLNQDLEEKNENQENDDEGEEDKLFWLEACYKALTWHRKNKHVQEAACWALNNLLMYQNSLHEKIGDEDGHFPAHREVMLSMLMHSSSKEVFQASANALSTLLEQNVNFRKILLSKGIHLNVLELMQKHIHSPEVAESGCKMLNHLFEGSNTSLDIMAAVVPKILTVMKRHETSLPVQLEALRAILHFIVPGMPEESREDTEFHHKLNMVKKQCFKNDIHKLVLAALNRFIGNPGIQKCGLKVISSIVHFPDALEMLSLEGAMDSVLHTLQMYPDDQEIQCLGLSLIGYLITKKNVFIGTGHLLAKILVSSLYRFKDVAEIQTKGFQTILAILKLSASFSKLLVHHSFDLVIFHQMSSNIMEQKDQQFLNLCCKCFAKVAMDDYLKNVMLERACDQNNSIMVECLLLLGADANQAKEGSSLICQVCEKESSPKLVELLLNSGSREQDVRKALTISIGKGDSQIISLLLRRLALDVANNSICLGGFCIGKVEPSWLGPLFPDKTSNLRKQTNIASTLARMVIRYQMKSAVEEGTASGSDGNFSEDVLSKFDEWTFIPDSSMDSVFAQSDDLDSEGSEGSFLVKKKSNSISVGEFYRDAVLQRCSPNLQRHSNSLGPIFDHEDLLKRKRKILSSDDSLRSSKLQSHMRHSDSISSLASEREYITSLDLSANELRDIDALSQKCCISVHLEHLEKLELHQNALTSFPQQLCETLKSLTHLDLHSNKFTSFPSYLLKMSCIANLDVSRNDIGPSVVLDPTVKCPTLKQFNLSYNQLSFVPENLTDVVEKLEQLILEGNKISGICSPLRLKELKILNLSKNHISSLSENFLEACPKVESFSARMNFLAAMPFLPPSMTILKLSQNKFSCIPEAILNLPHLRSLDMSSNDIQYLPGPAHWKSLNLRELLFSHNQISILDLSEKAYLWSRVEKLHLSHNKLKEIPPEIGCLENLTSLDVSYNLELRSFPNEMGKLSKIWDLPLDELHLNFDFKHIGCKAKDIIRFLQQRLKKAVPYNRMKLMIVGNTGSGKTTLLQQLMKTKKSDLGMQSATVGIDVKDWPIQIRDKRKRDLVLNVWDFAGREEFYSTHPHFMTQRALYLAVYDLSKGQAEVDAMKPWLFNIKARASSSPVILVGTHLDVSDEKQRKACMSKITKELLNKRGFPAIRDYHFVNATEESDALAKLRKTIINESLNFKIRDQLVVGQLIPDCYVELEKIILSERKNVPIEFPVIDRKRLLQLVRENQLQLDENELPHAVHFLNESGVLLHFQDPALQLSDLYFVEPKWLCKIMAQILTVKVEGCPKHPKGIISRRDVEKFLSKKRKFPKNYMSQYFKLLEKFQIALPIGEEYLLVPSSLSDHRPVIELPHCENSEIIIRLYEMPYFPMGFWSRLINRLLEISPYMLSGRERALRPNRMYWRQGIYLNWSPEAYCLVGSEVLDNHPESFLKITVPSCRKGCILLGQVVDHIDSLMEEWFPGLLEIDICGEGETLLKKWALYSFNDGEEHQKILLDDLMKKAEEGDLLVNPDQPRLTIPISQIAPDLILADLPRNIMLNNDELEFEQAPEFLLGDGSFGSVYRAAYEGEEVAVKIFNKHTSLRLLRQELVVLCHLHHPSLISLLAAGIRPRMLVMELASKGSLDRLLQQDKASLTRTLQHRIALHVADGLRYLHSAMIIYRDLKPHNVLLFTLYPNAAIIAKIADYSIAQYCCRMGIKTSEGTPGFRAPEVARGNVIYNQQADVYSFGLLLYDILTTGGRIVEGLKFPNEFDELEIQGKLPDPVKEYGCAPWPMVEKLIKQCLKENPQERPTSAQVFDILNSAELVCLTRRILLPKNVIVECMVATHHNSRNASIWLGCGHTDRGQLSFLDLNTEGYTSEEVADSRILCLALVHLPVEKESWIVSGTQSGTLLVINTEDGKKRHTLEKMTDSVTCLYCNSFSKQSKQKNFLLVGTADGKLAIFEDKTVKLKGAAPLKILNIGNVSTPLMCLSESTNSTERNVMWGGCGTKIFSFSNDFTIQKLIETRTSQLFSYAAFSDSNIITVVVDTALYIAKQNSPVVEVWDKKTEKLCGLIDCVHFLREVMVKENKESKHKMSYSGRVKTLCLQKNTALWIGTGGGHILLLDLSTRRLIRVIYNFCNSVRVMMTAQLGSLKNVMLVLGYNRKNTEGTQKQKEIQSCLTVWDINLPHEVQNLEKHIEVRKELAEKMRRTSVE
Assay type: biochemical
In the case of `CCNc1nc(Nc2ccc(C(=O)N3CCOCC3)c(F)c2F)ncc1C(F)(F)F` [Compound 41, [4-(4-Ethylamino-5-trifluoromethyl-pyrimidin-2-ylamino)-2,3-difluoro-phenyl]-morpholin-4-yl-methanone], the Ki is reported as 2.99 nM. For `CNc1nc(Nc2cc(C)c(C(=O)N3CCOCC3)cc2OC(C)C)ncc1C(F)(F)F` [Compound 99, [5-Isopropoxy-2-methyl-4-(4-methylamino-5-trifluoromethyl-pyrimidin-2-ylamino)-phenyl]-morpholin-4-yl-methanone], the Ki was 3.66 nM. `CNc1nc(Nc2cc(F)c(C(=O)N3CCOCC3)cc2OCCF)ncc1C(F)(F)F` [Compound 48, [2-Fluoro-5-(2-fluoro-ethoxy)-4-(4-methylamino-5-trifluoromethyl-pyrimidin-2-ylamino)-phenyl]-morpholin-4-yl-methanone] was tested, and the Ki was 3.48 nM. Compound `COc1cc(C(=O)N2CC[C@H](F)C2)ccc1Nc1ncc(C#N)c(NC2CC2)n1` [Compound 96, 4-Cyclopropylamino-2-[4-((S)-3-fluoro-pyrrolidine-1-carbonyl)-2-methoxy-phenylamino]-pyrimidine-5-carbonitrile] has a Ki of 3.13 nM. For `CNc1nc(Nc2cc(OC)c(C(=O)N3CCCCC3)cc2OCF)ncc1C(F)(F)F` [Compound 110, [5-Fluoromethoxy-2-methoxy-4-(4-methylamino-5-trifluoromethyl-pyrimidin-2-ylamino)-phenyl]-piperidin-1-yl-methanone], the Ki was 1.64 nM. `CCNc1nc(Nc2cc(OC)c(C(=O)N3CC[C@H](F)C3)cc2F)ncc1C#N` [Compound 81, 4-Ethylamino-2-[2-fluoro-4-((S)-3-fluoro-pyrrolidine-1-carbonyl)-5-methoxy-phenylamino]-pyrimidine-5-carbonitrile] was tested, and the Ki was 51.6 nM. With `CCNc1nc(Nc2cc(OCF)c(C(=O)N3CCCC3)cc2Cl)ncc1C(F)(F)F` [Compound 111, [5-Chloro-4-(4-ethylamino-5-trifluoromethyl-pyrimidin-2-ylamino)-2-fluoromethoxy-phenyl]-pyrrolidin-1-yl-methanone] the Ki was 1.68 nM. In the case of `CNc1nc(Nc2cc(OC)c(C(=O)N3CC4(CCO4)C3)cc2Cl)ncc1C(F)(F)F` [Compound 40, [5-Chloro-2-methoxy-4-(4-methylamino-5-trifluoromethyl-pyrimidin-2-ylamino)-phenyl]-(1-oxa-6-aza-spiro[3.3]hept-6-yl)-methanone], the Ki is reported as 2.76 nM. Work on `CNc1nc(Nc2cc(Cl)c(C(=O)N3CCOCC3)cc2C)ncc1C(F)(F)F` [Compound 126, [2-Chloro-5-methyl-4-(4-methylamino-5-trifluoromethyl-pyrimidin-2-ylamino)-phenyl]-morpholin-4-yl-methanone] yielded a Ki of 6.79 nM. `[2H]C1([2H])C(Nc2nc(Nc3cc(F)c(C(=O)N4CCOCC4)cc3OC)ncc2C(F)(F)F)C1([2H])[2H]` [Compound 123, (4-(4-(2,3-tetradeutero-cyclopropylamino)-5-(trifluoromethyl)pyrimidin-2-ylamino)-2-fluoro-5-methoxyphenyl)(morpholino)methanone] showed a Ki of 0.31 nM. With `CCN(c1ncc(C(F)(F)F)c(NC)n1)c1cc(C)c(C(=O)N2CCOCC2)cc1OCF` [Compound 89, {4-[Ethyl-(4-methylamino-5-trifluoromethyl-pyrimidin-2-yl)-amino]-5-fluoromethoxy-2-methyl-phenyl}-morpholin-4-yl-methanone] the Ki was 2600 nM. For `CNc1nc(Nc2ccc(C(=O)N3CCOC(C)(C)C3)cc2OC)ncc1C(F)(F)F` [Compound 83, (2,2-Dimethyl-morpholin-4-yl)-[3-methoxy-4-(4-methylamino-5-trifluoromethyl-pyrimidin-2-ylamino)-phenyl]-methanone], the Ki was 1.74 nM. Work on `CCNc1nc(Nc2cc(F)c(C(=O)N3CCOCC3)cc2F)ncc1C(F)(F)F` [Compound 31, [4-(4-Ethylamino-5-trifluoromethyl-pyrimidin-2-ylamino)-2,5-difluoro-phenyl]-morpholin-4-yl-methanone] yielded a Ki of 9.48 nM. In the case of `CCNc1nc(Nc2ccc(C(=O)NC(C)(C)C)cc2OC)ncc1C#N` [Compound 46, N-tert-Butyl-4-(5-cyano-4-ethylamino-pyrimidin-2-ylamino)-3-methoxy-benzamide], the Ki is reported as 3.03 nM. `COc1cc(C(=O)N2CCOCC2)c(F)cc1Nc1ncc(C(F)(F)F)c(NC2CC2)n1` [Compound 25, [4-(4-Cyclopropylamino-5-trifluoromethyl-pyrimidin-2-ylamino)-2-fluoro-5-methoxy-phenyl]-morpholin-4-yl-methanone] showed a Ki of 0.507 nM. Compound `CNc1nc(Nc2cc(OC)c(C(=O)N(C)c3cnn(C)c3)cc2Cl)ncc1C(F)(F)F` [Compound 55, 5-Chloro-2-methoxy-N-methyl-4-(4-methylamino-5-trifluoromethyl-pyrimidin-2-ylamino)-N-(1-methyl-1H-pyrazol-4-yl)-benzamide] has a Ki of 14.5 nM. Compound `CCOc1nc(Nc2cc(C)c(C(=O)N3CCOCC3)cc2OC)ncc1Cl` [Compound 94, [4-(5-Chloro-4-ethoxy-pyrimidin-2-ylamino)-5-methoxy-2-methyl-phenyl]-morpholin-4-yl-methanone] has a Ki of 2.97 nM. Compound `CCNc1nc(Nc2cc(OC)c(C(=O)NCC(C)(C)O)cc2F)ncc1C(F)(F)F` [Compound 28, 4-(4-Ethylamino-5-trifluoromethyl-pyrimidin-2-ylamino)-5-fluoro-N-(2-hydroxy-2-methyl-propyl)-2-methoxy-benzamide] has a Ki of 6.42 nM. With `CNc1nc(Nc2cc(OC)c(C(=O)N3CCC(F)(F)C3)cc2OCCF)ncc1C(F)(F)F` [Compound 39, (3,3-Difluoro-pyrrolidin-1-yl)-[5-(2-fluoro-ethoxy)-2-methoxy-4-(4-methylamino-5-trifluoromethyl-pyrimidin-2-ylamino)-phenyl]-methanone] the Ki was 1.46 nM. `CNc1nc(Nc2cc(OC)c(C(=O)N(C)CC(C)(C)O)cc2F)ncc1C(F)(F)F` [Compound 29, 5-Fluoro-N-(2-hydroxy-2-methyl-propyl)-2-methoxy-N-methyl-4-(4-methylamino-5-trifluoromethyl-pyrimidin-2-ylamino)-benzamide] was tested, and the Ki was 19.5 nM. `O=C(c1ccc(Nc2ncc(C(F)(F)F)c(NC3CC3)n2)c(F)c1F)N1CCOCC1` [Compound 51, [4-(4-Cyclopropylamino-5-trifluoromethyl-pyrimidin-2-ylamino)-2,3-difluoro-phenyl]-morpholin-4-yl-methanone] showed a Ki of 2.28 nM.
